The values below come from US9561201B2, “Therapeutic compounds” (Fibrotech Therapeutics Pty Ltd, priority 2006, dated 2017).

The subject of data set [1] is rat mesangial cell line. Kind of data set: Effect on mesangial cell appearance (visual monitoring during proline assay). It is filed as cell-based. On the procedure:
(§1) A well-characterized cloned rat mesangial cell line (gift of D Nikolic-Patterson) is cultured in DMEM with FBS, 100 U/mL penicillin, and 100 ug/mL streptomycin in a humidified 5% CO2 atmosphere at 37° C. Cells are plated into 24-well culture dishes in DMEM/10% FBS at low density and allowed to adhere overnight. Cells are used between passages 20 and 40. The subconfluent cells are starved overnight in DMEM/0.1% FBS containing 150 uM L-ascorbic acid, prior to 4 hours of pre-treatment with or without tranilast or the FT compounds, followed by the addition of 5 ng/mL rhTGF-β11 (R&D Systems) and 1 uCi/mL of L-(2,3,4,5-^3H)-proline. Control wells have the compounds but no TGF-β1 added. Cells are incubated for a further 44 hours during which time their appearance is visually monitored. The cells are then washed three times in ice-cold PBS, twice in ice cold 10% TCA and solubilized in 750 uL 1M NaOH for 45 minutes at 37° C. or overnight at 4° C. A 500 uL aliquot is neutralized with 500 uL 1M HCl and 10 mL scintillation fluid (Instagel Plus-Perkin-Elmer) added. Counts are performed on a beta counter.
Compounds in Bold have Minimal Effect on Cell Appearance and Viability

The subject of data set [2] is rat mesangial cell line. Kind of data set: TGF-β stimulated 3H-proline incorporation in mesangial cells (Example 5). It is filed as cell-based. The settings on record: for Collagen synthesis: inhibition ranked against tranilast (T) or FT11. On the procedure: as §1
To normalize the proline incorporation counts to take into account the proliferative effects of TGF-β1, a BioRad protein assay is performed on a 100-150 uL aliquot of the remaining solubilized cells. The sample is neutralized with an equal amount of 1M HCl prior to the assay. The BSA standards used to construct the standard curve have the same amount of 1M NaOH and 1M HCl added as is present in the samples for assay.
Proline incorporation is expressed as cpm/ug protein. In order to compare inter-assay results, the incorporation is expressed as percentage reduction of TGF stimulated proline incorporation, where TGF alone gives 0% reduction and the zero control gives 100% reduction.

In data set [3] the test system is Mesangial cells. Nature of the data set: Mesangial cell MTT assay with TGF-β. It is filed as cell-based, rat. The settings on record: @ 30 μM; suppressed = reduced cell viability. The procedure:
Mesangial cells are plated at 15000 cells per well into 96-well culture dishes in DMEM/10% FBS and allowed to adhere overnight. The subconfluent cells are starved overnight in DMEM/0.1% FBS, prior to 4 hours of pre-treatment with or without tranilast or the FT compounds. Following the addition of 5 ng/mL rhTGF-β1, the cells are incubated in a humidified 5% CO2 atmosphere at 37° C. for 44 hours. Control wells have the compounds but no TGF-β1 added. The culture medium is removed from each well and 100 uL MTT (0.5 mg/mL) in starve medium is added to each well. The plates are incubated for a further 4 hours at 37° C. The culture medium is then removed and replaced with 100 μL isopropanol and incubated at 37° C. for 20 to 30 minutes, until the blue formazan crystals have dissolved. The absorbance is measured at a wavelength of 570 nm with background subtraction of 690 nm.
Suppressed MTT Result Indicates Reduced Cell Viability
On the technique in general: Formazan colour is commonly taken as a measure of viable cells.

The mark [4] stands for this setting: Rattus norvegicus, Mesangial cell, 5 ng/mL TGF-β1, 44 h, read-out: Mesangial Cell Assay TGF-β % reduction of TGF-β stimulation_proline inc.

With `COc1ccc(/C=C/C(=O)Nc2ccccc2C(=O)O)cc1O` [Analogue 7, (E)-2-[[3-(3-Hydroxy-4-methoxyphenyl)-1-oxo-2-propenyl]amino]benzoic acid], the melting point – broadly, the temperature, or range, at which the solid turns liquid – was in the range of 215 to 216 °C. In addition, in data set [1] (no concentration stated), the “Effect on mesangial cell appearance” value was “stressed”. The inhibition at 10 µM in data set [2] (setting [4]) is around 50%. Also, the inhibition at 50 µM in data set [2] (Rattus norvegicus, Mesangial cell, @ 50 μM, 5 ng/mL TGF-β1, 44 h, read-out: Mesangial Cell Assay TGF-β % reduction of TGF-β stimulation_proline inc.) came out at 80%. Moreover, the Collagen synthesis result in data set [2] was “> or =T”.
Molecule `COc1ccc(/C=C/C(=O)Nc2cc3ccccc3cc2C(=O)O)cc1OC` [Analogue 8, (E)-3-[[3-(3,4-Dimethoxyphenyl)-1-oxo-2-propenyl]amino]-2-naphthoic acid] came in with a melting point of 212 to 213 °C. Besides, the “Effect on mesangial cell appearance” value in data set [1] (no concentration stated) is “Heavily”. The Collagen synthesis entry in data set [2] is recorded as “Toxic”.
In turn, `COc1ccc(/C=C/C(=O)Nc2ccc(Br)cc2C(=O)O)cc1OC` [Analogue 16, (E)-2-[[3-(3,4-Dimethoxyphenyl)-1-oxo-2-propenyl]amino]-5-bromobenzoic acid] returned a melting point of 210 to 213 °C. Besides, in data set [1] (@ 10 μM), the “Effect on mesangial cell appearance” value is “lifting off”. Besides, in data set [3], the “Mesangial cell MTT Assay TGF-β” value is recorded as “Suppressed”. In addition, in data set [2] (setting [4]), the inhibition at 3 µM was around 20% and the inhibition at 10 µM was around 50%. The Collagen synthesis entry in data set [2] is “>>FT11”.
Regarding `CCC#CCOc1ccc(/C=C/C(=O)Nc2ccccc2C(=O)O)cc1OC` [Analogue 18, (E)-2-[[3-(3-Methoxy-4-(pent-2-ynyloxy)phenyl)-1-oxo-2-propenyl]amino]benzoic acid], the melting point was 185.5 to 186.5 °C. For the same molecule, the “Effect on mesangial cell appearance” value in data set [1] (@ 30 μM) is “lifting off”. Moreover, in data set [2] (setting [4]), the inhibition at 3 µM is around 55% and the inhibition at 10 µM is around 70%. Also, the Collagen synthesis result in data set [2] was “>>FT11”.
In the case of `COc1ccc(/C=C/C(=O)Nc2ccccc2C(=O)O)cc1OCc1cn(CC(=O)Nc2ccccc2)nn1` [Analogue 21, (E)-2-[[3-(4-Methoxy-3-((1-(2-oxo-2-(phenylamino)ethyl)-1H-1,2,3-triazol-4-yl)methoxy)phenyl)-1-oxo-2-propenyl]amino]benzoic acid], the “Effect on mesangial cell appearance” value in data set [1] (@ 100 μM) is reported as “necrotic”. In addition, the “Mesangial cell MTT Assay TGF-β” value in data set [3] is listed as “Suppressed”. Besides, in data set [2] (setting [4]), the inhibition at 10 µM is around 20% and the inhibition at 30 µM is around 65%. Besides, in data set [2], the Collagen synthesis result is “=FT11”.
Regarding `CC#CCOc1cc(/C=C/C(=O)Nc2ccccc2C(=O)O)ccc1OC` [Analogue 23, (E)-2-{[3-(3-(But-2-ynyloxy)-4-methoxyphenyl)-1-oxo-2-propenyl]amino}benzoic acid], the melting point lay within 170 to 171 °C. Moreover, the “Effect on mesangial cell appearance” value in data set [1] (@ 100 μM) is reported as “stress @”. Also, in data set [2] (setting [4]), the inhibition at 3 µM is around 12%, the inhibition at 10 µM was 30 to 60% and the inhibition at 30 µM fell in the range of 70 to 80%. Besides, the inhibition at 100 µM in data set [2] (Rattus norvegicus, Mesangial cell, @ 100 μM, 5 ng/mL TGF-β1, 44 h, read-out: Mesangial Cell Assay TGF-β % reduction of TGF-β stimulation_proline inc.) was around 80%. Also, the Collagen synthesis result in data set [2] was “>=FT11”.
The molecule `COc1cc(/C=C/C(=O)Nc2ccccc2C(=O)O)ccc1OC1CCCCC1` [Analogue 27, (E)-2-{[3-(4-Cyclohexyloxy-3-methoxyphenyl)-1-oxo-2-propenyl]amino}benzoic acid] gave a melting point of 90 to 92 °C. Also, the “Effect on mesangial cell appearance” value in data set [1] (@ 10 μM) is “Sparse @”. Besides, in data set [1] (@ 30 μM), the “Effect on mesangial cell appearance” value is “sick @ 30 μM”. Further, in data set [1] (@ 100 μM), the “Effect on mesangial cell appearance” value was “lifting off”. For the same molecule, the “Mesangial cell MTT Assay TGF-β” value in data set [3] is listed as “Suppressed”. In data set [2] (Rattus norvegicus, Mesangial cell, @ 1 μM, 5 ng/mL TGF-β1, 44 h, read-out: Mesangial Cell Assay TGF-β % reduction of TGF-β stimulation_proline inc.), the inhibition at 1 µM is around 18%. Besides, in data set [2] (setting [4]), the inhibition at 3 µM was 40% and the inhibition at 10 µM was 75 to 90%. Also, the Collagen synthesis entry in data set [2] was “>FT11”.
For the molecule `C#CCCCOc1cc(/C=C/C(=O)Nc2ccccc2C(=O)O)ccc1OC` [Analogue 36, (E)-2-[[3-(4-Methoxy-3-(pent-4-ynyloxy)phenyl)-1-oxo-2-propenyl]amino]benzoic acid], the melting point fell in the range of 154 to 156 °C. Besides, the “Mesangial cell MTT Assay TGF-β” value in data set [3] was “Severely”. For the same molecule, in data set [2] (setting [4]), the inhibition at 10 µM was around 50% and the inhibition at 30 µM turned out to be 80%. Besides, the Collagen synthesis result in data set [2] is on record as “=>FT11”.
Molecule `C#CCCOc1ccc(/C=C/C(=O)Nc2ccccc2C(=O)O)cc1OC` [Analogue 37, (E)-2-[[3-(4-(But-3-ynyloxy)-3-methoxyphenyl)-1-oxo-2-propenyl]amino]benzoic acid] came in with a melting point of 178 to 180 °C. The “Effect on mesangial cell appearance” value in data set [1] (@ 100 μM) is listed as “Some death”. In data set [2] (setting [4]), the inhibition at 10 µM was around 50% and the inhibition at 30 µM was 70%. The Collagen synthesis result in data set [2] is recorded as “=FT11”.
In turn, `C#CCCOc1cc(/C=C/C(=O)Nc2ccccc2C(=O)O)ccc1OC` [Analogue 38, (E)-2-[[3-(3-(But-3-ynyloxy)-4-methoxyphenyl)-1-oxo-2-propenyl]amino]benzoic acid] yielded a melting point of 197 to 198 °C. Besides, in data set [1] (@ 100 μM), the “Effect on mesangial cell appearance” value is recorded as “Some death”. For the same molecule, in data set [2] (setting [4]), the inhibition at 10 µM was around 40% and the inhibition at 30 µM was found to be 65%. In addition, the Collagen synthesis result in data set [2] was “=FT11”.
`CCC#CCCOc1ccc(/C=C/C(=O)Nc2ccccc2C(=O)O)cc1OC` [Analogue 39, (E)-2-[[3-(4-(Hex-3-ynyloxy)-3-methoxyphenyl)-1-oxo-2-propenyl]amino]benzoic acid] came in with a melting point of 165 to 166 °C. Also, the “Effect on mesangial cell appearance” value in data set [1] (@ 30 μM) is “Looking bad”. In addition, in data set [2] (setting [4]), the inhibition at 10 µM was around 70% and the inhibition at 30 µM was found to be 100%. The Collagen synthesis entry in data set [2] is recorded as “>FT11”.
Consider `CCC#CCCOc1cc(/C=C/C(=O)Nc2ccccc2C(=O)O)ccc1OC` [Analogue 40, (E)-2-[[3-(3-(Hex-3-ynyloxy)-4-methoxyphenyl)-1-oxo-2-propenyl]amino]benzoic acid], for which the melting point is 163 to 165 °C. Besides, the “Effect on mesangial cell appearance” value in data set [1] (@ 100 μM) is “dead”. Moreover, in data set [2] (setting [4]), the inhibition at 10 µM was around 70% and the inhibition at 30 µM is 100%. The Collagen synthesis entry in data set [2] is given as “>FT11”.
`CCCCC#CCCOc1ccc(/C=C/C(=O)Nc2ccccc2C(=O)O)cc1OC` [Analogue 41, (E)-2-[[3-(3-Methoxy-4-(oct-3-ynyloxy)phenyl)-1-oxo-2-propenyl]amino]benzoic acid] showed a melting point of 169 to 170 °C. Besides, in data set [1] (@ all concentrations), the “Effect on mesangial cell appearance” value is “Cells damaged @”. Moreover, in data set [2], the Collagen synthesis result was “Toxic”.
In the same order, the values of `CCCCC#CCCOc1cc(/C=C/C(=O)Nc2ccccc2C(=O)O)ccc1OC` [Analogue 42, (E)-2-[[3-(4-Methoxy-3-(oct-3-ynyloxy)phenyl)-1-oxo-2-propenyl]amino]benzoic acid] are 157 to 158 °C, “Cells damaged @” and “Toxic”.
The molecule `CCC(CC)Oc1ccc(/C=C/C(=O)Nc2ccccc2C(=O)O)cc1OC` [Analogue 45, (E)-2-[[3-(3-Methoxy-4-(pent-3-yloxy)phenyl)-1-oxo-2-propenyl]amino]benzoic acid] came in with a melting point of 82 to 85 °C. Further, the “Effect on mesangial cell appearance” value in data set [1] (@ 100 μM) is recorded as “Cells damaged”. Moreover, in data set [2] (setting [4]), the inhibition at 10 µM came out at 80% and the inhibition at 30 µM is 142%. Also, the Collagen synthesis result in data set [2] is recorded as “>FT11”.
